Experimental data as given in publication PMC10167355, “Optimized spirooxindole-pyrazole hybrids targeting the p53-MDM2 interplay induce apoptosis and synergize with doxorubicin in A549 cells” (Scientific Reports, 2023).
Entries after “also recorded” stand apart in the source; their conditions may differ. One block for each molecule: values may come before it.

Assays:
[1] = tested on: MDM2; assay: Western blot of MDM2 level in A549 cells; type: cell-based, human; settings: for MDM2 level, single agent / MDM2 level, combined treatment compared to doxorubicin alone: A549; for MDM2 level, single agent: 0.2 µM derivative alone or 14 µM doxorubicin alone; for MDM2 level, combined treatment compared to doxorubicin alone: 0.2 µM derivative plus 14 µM doxorubicin; for MDM2 level: A549, drug concentration equivalent to IC75 (30 µM), fold over mock
Procedure: (§1) A549 cells were treated with different concentrations of the molecules as indicated. Cell extracts were prepared as described. Ten-20 μg of total proteins were resolved on 4–15% Mini protean TGX precast gels (Bio-Rad) and transferred to nitrocellulose membrane using 1704158 Trans-Blot Turbo Mini NC Transfer Packs (Bio-Rad) in a Trans-Blot Turbo apparatus (Bio-Rad). Membranes were blocked with 5% non-fat dry milk in 0.1% Tween-20 in PBS for 1 h, then incubated for 1 h at room temperature or overnight at 4 °C with the appropriate primary antibody. The following antibodies were employed: anti-p53 (DO-1, sc-126, Santa Cruz Biotechnology, 1:20.000), anti-p21 (2946, Cell Signaling, 1:2000), anti-MDM2 (SMP14, sc-965, Santa Cruz Biotechnology, 1:200), anti β-actin (AC-74, Sigma-Aldrich, 1:30.000); secondary anti-mouse IgG peroxidase conjugate (A9044, Sigma–Aldrich, 1:10.000) and secondary anti-rabbit peroxidase conjugate (A9169, Sigma-Aldrich, 1: 12.000). Detection was carried out with ECL FAST PICO (ECL-1002, Immunological Sciences, Roma, Italy). Chemiluminescence was analysed by Alliance LD, UVITEC Cambridge (Cambridge, UK).

[2] = tested on: p21; assay: Western blot of p21 level in A549 cells; type: cell-based, human; settings: for p21 level, single agent / p21 level, combined treatment compared to doxorubicin alone: A549; for p21 level, single agent: 0.2 µM derivative alone or 14 µM doxorubicin alone; for p21 level, combined treatment compared to doxorubicin alone: 0.2 µM derivative plus 14 µM doxorubicin
Procedure: as §1

[3] = tested on: p53; assay: Western blot of p53 level in A549 cells; type: cell-based, human; settings: for p53 induction, dose–response: A549, 24 h, 0.01, 0.1, 1, 10 µM; for p53 level, single agent / p53 level, combined treatment compared to doxorubicin alone: A549; for p53 level, single agent: 0.2 µM derivative alone or 14 µM doxorubicin alone; for p53 level, combined treatment compared to doxorubicin alone: 0.2 µM derivative plus 14 µM doxorubicin; for p53 level: A549, drug concentration equivalent to IC75 (30 µM), fold over mock
Procedure: as §1

[4] = tested on: A549 cells; assay: Annexin-V-FITC / propidium iodide apoptosis assay; type: cell-based, human; settings: A549, compounds at their specific IC75s, three days
Procedure: The induction of apoptosis was evaluated in A549 cells characterized by wild-type p53 and MDM2 proteins. They were plated at the opportune concentration (see above) into 25 cm^2 flasks in 10 mL complete medium. After 6–8 h the compounds were added at their specific IC75s, as previously calculated by the MTT assay.
All floating and adherent cells were harvested three days later, washed with normal saline buffer, and apoptosis determined by double staining with Annexin-V-FITC and propidium iodide (PI) (rh AnnexinV/FITC Kit, Bender MedSystem GmbH, Vienna, Austria). Briefly, 0.5 × 10^6 cells were resuspended in binding buffer 1× and stained with 5 μL of Annexin-V-FITC. After 10 min incubation 10 μL of PI were added and samples incubated for 5 min. Samples were immediately analyzed using a Flow Cytometer (FACScan, BD Biosciences, Milano, Italy) with dedicated software.

[5] = tested on: activated PBL; assay: MTT assay on normal PBL activated with PHA and recombinant IL-2; type: cell-based; settings: Homo sapiens, mean ± SD of 4–6 IC50 values
Procedure: (§2) Human tumor cell lines A2780 [ovary, adenocarcinoma, accession number HTL98008, obtained from Interlab Cell Line Collection (ICLC), Genova, Italy], A549 (lung, carcinoma, HTL03001, ICLC), MDA-MB-453 (breast, carcinoma, HTL01013, ICLC), and HepG2 (liver, carcinoma, HB-8065, American Type Culture Collection, Rockville, MA, USA ) were plated at 1.4 × 10^4/ml, 0.65 × 10^4/mL, 4.7 × 10^4/mL, and 1.0 × 10^4/mL, respectively, in 180 μL complete medium (RPMI 1640 for A2780 and A549 and DMEM for MDA-MB-453 and HepG2) into flat-bottomed 96-well microtiter plates. After 6–8 h cells were treated with 20 μL containing five 1:10 fold concentrations of our compounds diluted in FCS containing 3% DMSO. As normal non-cancer cell targets we used peripheral blood lymphocytes obtained from three healthy volunteers, isolated by gradient centrifugation (Lympholyte-H Cell Separation Media, EuroClone, Pero, MI, Italy) and stimulated with 1% phytohemagglutinin and 100 U/ml recombinant IL-2. One week after stimulation cells were ready for use at 15,000/well.
In both cases, after 72 h treatment, the MTT assay was applied as described elsewhere. […] IC100 and IC75 were extrapolated from the mean concentration–response curves.

[6] = tested on: A2780, A549, HepG2, MDA-MB-453; assay: MTT assay, panel of four human cancer cell lines taken together; type: cell-based; settings: all four cell lines, 30 μM = arbitrary limit of pharmacological relevance
Procedure: After 6–8 h cells were treated with 20 μL containing five 1:10 fold concentrations of our compounds diluted in FCS containing 3% DMSO. As normal non-cancer cell targets we used peripheral blood lymphocytes obtained from three healthy volunteers, isolated by gradient centrifugation (Lympholyte-H Cell Separation Media, EuroClone, Pero, MI, Italy) and stimulated with 1% phytohemagglutinin and 100 U/ml recombinant IL-2. One week after stimulation cells were ready for use at 15,000/well. In both cases, after 72 h treatment, the MTT assay was applied as described elsewhere. […] IC100 and IC75 were extrapolated from the mean concentration–response curves.

[7] = tested on: A549 (lung); assay: MTT antiproliferative assay, A549; type: cell-based; settings: Homo sapiens, 72 h treatment, mean ± SD of 5–6 data
Procedure: as §2
(§3) In both cases, after 72 h treatment, the MTT assay was applied as described elsewhere. The IC50 values were calculated from the analysis of single concentration–response curves, each final value is the mean of 5–6 experiments. IC100 and IC75 were extrapolated from the mean concentration–response curves.

[8] = tested on: A2780 (ovarian); assay: MTT antiproliferative assay, A2780; type: cell-based; settings: Homo sapiens, 72 h treatment, mean ± SD of 5–6 data
Procedure: as §2, §3

[9] = tested on: HepG2 (liver); assay: MTT antiproliferative assay, HepG2; type: cell-based; settings: Homo sapiens, 72 h treatment, mean ± SD of 5–6 data
Procedure: as §2, §3

Molecule: 7'-(Ferrocin-2-yl)-6'-(5-methyl-1-phenyl-1H-pyrazole-4-carbonyl)-3',6',7',7a'-tetrahydro-1'H-spiro[indoline-3,5'-pyrrolo[1,2-c]thiazol]-2-one [8d]
MDM2 level, single agent [1]: slight but not significant MDM2 increase
MDM2 level, combined treatment compared to doxorubicin alone [1]: no further increases
p21 level, single agent [2]: did not increase
p21 level, combined treatment compared to doxorubicin alone [2]: no further increases
p53 induction, dose–response [3]: able to induce p53 only at high concentrations
p53 level, single agent [3]: did not increase
p53 level, combined treatment compared to doxorubicin alone [3]: no further increases

Molecule: Cc1c(C(=O)C2C(c3cccc(F)c3)C3CSCN3C23C(=O)Nc2ccccc23)cnn1-c1ccccc1 (centres unmarked) [8j, 7'-(3-Fluorophenyl)-6'-(5-methyl-1-phenyl-1H-pyrazole-4-carbonyl)-1',6',7',7a'-tetrahydro-3'H-spiro[indoline-3,5'-pyrrolo[1,2-c]thiazol]-2-one]
MDM2 level, single agent [1]: slight but not significant MDM2 increase
MDM2 level, combined treatment compared to doxorubicin alone [1]: no further increases; also recorded: did not trigger a further
p21 level, single agent [2]: did not increase
p21 level, combined treatment compared to doxorubicin alone [2]: no further increases
melting point: 125 to 126 °C
p53 induction, dose–response [3]: able to induce p53 only at high concentrations; also recorded: induce p53, although not at high level and only at high concentrations
p53 level, single agent [3]: did not increase
p53 level, combined treatment compared to doxorubicin alone [3]: no further increases; also recorded: did not trigger a further
apoptotic activity [4]: slightly trigger apoptosis
IC50 ([5]; PBL A): 54 ± 2.5 µM
IC50 ([5]; PBL B): 55 ± 3.3 µM
IC50 ([5]; PBL C): 61.2 ± 19.7 µM

Molecule: COc1cccc2c1C(=O)c1c(O)c3c(c(O)c1C2=O)C[C@@](O)(C(=O)CO)C[C@@H]3O[C@H]1C[C@H](N)[C@H](O)[C@H](C)O1 [Doxorubicin, doxorubicin]
MDM2 level, single agent [1]: strongly decreased
p21 level, single agent [2]: clearly triggered the induction
p53 level, single agent [3]: clearly triggered the induction

melting point: 122 to 123 °C
Molecule: Cc1c(C(=O)C2C(c3ccc(Cl)cc3)C3CSCN3C23C(=O)Nc2ccccc23)cnn1-c1ccccc1 (centres unmarked)

melting point: 109 to 110 °C
Molecule: COc1ccc(C2C3CSCN3C3(C(=O)Nc4ccccc43)C2C(=O)c2cnn(-c3ccccc3)c2C)cc1 (centres unmarked)

melting point: 142 to 143 °C
Molecule: Cc1c(C(=O)C2C(c3ccc([N+](=O)[O-])cc3)C3CSCN3C23C(=O)Nc2ccccc23)cnn1-c1ccccc1 (centres unmarked)

Molecule: Cc1c(C(=O)C2C(c3ccccn3)C3CSCN3C23C(=O)Nc2ccccc23)cnn1-c1ccccc1 (centres unmarked) [8l, 6'-(5-Methyl-1-phenyl-1H-pyrazole-4-carbonyl)-7'-(pyridin-2-yl)-3',6',7',7a'-tetrahydro-1'H-spiro[indoline-3,5'-pyrrolo[1,2-c]thiazol]-2-one]
melting point: 135 to 136 °C
IC50 [6]: ≥ 30 µM

melting point: 146 to 147 °C
Molecule: Cc1c(C(=O)C2C(c3cccc([N+](=O)[O-])c3)C3CSCN3C23C(=O)Nc2ccccc23)cnn1-c1ccccc1 (centres unmarked)

melting point: 134 to 135 °C
Molecule: Cc1ccc(C2C3CSCN3C3(C(=O)Nc4ccccc43)C2C(=O)c2cnn(-c3ccccc3)c2C)cc1 (centres unmarked)

melting point: 229 to 230 °C
Molecule: Cc1c(C(=O)C2C(c3ccccc3)C3CSCN3C23C(=O)Nc2ccccc23)cnn1-c1ccccc1 (centres unmarked)

Molecule: Cc1c(C(=O)C2C(c3cccc(Br)c3)C3CSCN3C23C(=O)Nc2ccccc23)cnn1-c1ccccc1 (centres unmarked) [8m, 7'-(3-Bromophenyl)-6'-(5-methyl-1-phenyl-1H-pyrazole-4-carbonyl)-3',6',7',7a'-tetrahydro-1'H-spiro[indoline-3,5'-pyrrolo[1,2-c]thiazol]-2-one]
IC50 [7]: 17.7 µM
MDM2 modulation, dose–response ([1]; A549, 24 h, 0.01, 0.1, 1, 10 µM): dose-dependent down regulation of MDM2
MDM2 level [1]: downmodulated MDM2; also recorded: clear down modulation; also recorded: down regulation of MDM2
melting point: 132 to 133 °C
p53 level [3]: did not induce any changes; also recorded: did not induce p53
apoptotic activity [4]: highly significant apoptotic activity; also recorded: considerable high level of apoptosis
IC50 ([5]; PBL A): 48.8 ± 4.9 µM
IC50 ([5]; PBL B): 36.1 ± 14.7 µM
IC50 ([5]; PBL C): 68.1 ± 23.8 µM

Molecule: Cc1c(C(=O)C2C(c3ccc(Cl)cc3Cl)C3CSCN3C23C(=O)Nc2ccccc23)cnn1-c1ccccc1 (centres unmarked) [8h, 7'-(2,4-Dichlorophenyl)-6'-(5-methyl-1-phenyl-1H-pyrazole-4-carbonyl)-1',6',7',7a'-tetrahydro-3'H-spiro[indoline-3,5'-pyrrolo[1,2-c]thiazol]-2-one]
IC50 [8]: 10.3 µM
MDM2 level, single agent [1]: slight but not significant MDM2 increase
MDM2 level, combined treatment compared to doxorubicin alone [1]: no further increases; also recorded: did not trigger a further
IC50 [9]: 18.6 µM
p21 level, single agent [2]: did not increase
p21 level, combined treatment compared to doxorubicin alone [2]: no further increases
melting point: 141 to 142 °C
p53 induction, dose–response [3]: able to induce p53 only at high concentrations; also recorded: induce p53, although not at high level and only at high concentrations
p53 level, single agent [3]: did not increase
p53 level, combined treatment compared to doxorubicin alone [3]: no further increases; also recorded: did not trigger a further
apoptotic activity [4]: slightly trigger apoptosis
IC50 ([5]; PBL A): 53.6 ± 2.1 µM
IC50 ([5]; PBL B): 57.4 ± 5.5 µM
IC50 ([5]; PBL C): 65.8 ± 23.2 µM

Molecule: Cc1c(C(=O)C2C(c3ccco3)C3CSCN3C23C(=O)Nc2ccccc23)cnn1-c1ccccc1 (centres unmarked) [8b, 7'-(Furan-2-yl)-6'-(5-methyl-1-phenyl-1H-pyrazole-4-carbonyl)-3',6',7',7a'-tetrahydro-1'H-spiro[indoline-3,5'-pyrrolo[1,2-c]thiazol]-2-one]
MDM2 level [1]: an increase
p21 level ([2]; A549, drug concentration equivalent to IC75 (30 µM), fold over mock): an increase
melting point: 227 to 228 °C
p53 level [3]: significantly increased; also recorded: able to activate p53
apoptotic activity [4]: significantly trigger apoptosis
apoptotic activity ([4]; listed as 8t): highly significant apoptotic activity
IC50 [6]: ≥ 30 µM

melting point: 144 to 145 °C
Molecule: Cc1c(C(=O)C2C(/C=C/c3ccccc3)C3CSCN3C23C(=O)Nc2ccccc23)cnn1-c1ccccc1 (centres unmarked)

melting point: 128 to 130 °C
Molecule: Cc1cccc(C2C3CSCN3C3(C(=O)Nc4ccccc43)C2C(=O)c2cnn(-c3ccccc3)c2C)c1 (centres unmarked)
